Like-named read-outs stand apart in the source and are kept apart here.
Assays:
[1] = test system: PC12, pheochromocytoma of the rat adrenal medulla; test: Anti-proliferation MTT / CCK-8 assay; type: cell-based; details: PC-12, 72 h
Excerpt: (§1) K562, human erythroleukemia line; HL-60, human leukemic cell line; Jurkat, human leukemic T cell line; CCRF-CEM, human leukemic lymphoblasts; U937, human histiocytic lymphoma; HCT-116, human colorectal cancer cell line; A549, human lung cancer cell line; Hep G2, human hepatoma cell lines; MDA-MB-231, MCF-7, human breast cancer cell line; 4T1, mouse breast cancer cell line; PC12, pheochromocytoma of the rat adrenal medulla; HUVEC, human umbilical vein endothelial cells. These cells were purchased from the National Collection of Authenticated Cell Cultures (Shanghai, China).
(§2) The concentration of the cell suspension was adjusted to the appropriate concentration with fresh medium (the number of cells was about 30–40% of the bottom area of the well plate). 150 μL (about 1 × 10^4 cells) of prepared cell suspension containing different concentrations of NBU-2 were added to a 96-microtiter plate, and 3 replicate wells were set up for each concentration. If the cells were adherent, the cells were first allowed to grow overnight in 96 microtiter plates until the cells were adherent, and then the old medium was replaced with the drug-containing medium. The plates were incubated in a 5% CO2 cell incubator at 37 °C for 72 h. Then, 15 μL of MTT solution was added to each well, 100 μL of 10% SDS solution (pH = 2) was added after 4 h, and the plate was incubated at 37 °C with 5% CO2 overnight to fully dissolve the crystals. Finally, the absorbance value of each well was measured at 570 and 655 nm.
(§3) The cells (about 1 × 10^4 cells) were treated with different concentrations of NBU-2 and DMSO control for different times (24 h, 48 h, 72 h), with 3 replicate wells for each concentration. Incubate at 37 °C in a 5% CO2 cell culture incubator. After a predetermined time, 10 μL of CCK-8 was added to each well and incubated for 2 h. The absorbance was measured at the excitation wavelength of 450 nm.

[2] = test system: A549, human lung cancer cell line; test: Anti-proliferation MTT / CCK-8 assay; type: cell-based; details: A549, read-out: IC50 proliferation A549, heading: IC50 proliferation A549, 72 h, mean ± SEM of three independent assays
Excerpt: as §1, §2, §3

[3] = test system: HCT-116, human colorectal cancer cell line; test: Anti-proliferation MTT / CCK-8 assay; type: cell-based; details: HCT-116, read-out: IC50 proliferation HCT-116, heading: IC50 proliferation HCT-116, 72 h, mean ± SEM of three independent assays
Excerpt: as §1, §2, §3

[4] = test system: K562, human erythroleukemia line; test: Anti-proliferation MTT / CCK-8 assay; type: cell-based; details: K562, read-out: IC50 proliferation K562, heading: IC50 proliferation K562, 72 h, mean ± SEM of three independent assays
Excerpt: as §1, §2, §3

[5] = test system: Hep G2, human hepatoma cell lines; test: Anti-proliferation MTT / CCK-8 assay; type: cell-based; details: HepG2, read-out: IC50 proliferation HepG2, heading: IC50 proliferation HepG2, 72 h, mean ± SEM of three independent assays
Excerpt: as §1, §2, §3

[6] = test system: CCRF-CEM, human leukemic lymphoblasts; test: Anti-proliferation MTT / CCK-8 assay; type: cell-based; details: read-out: IC50 proliferation CCRF-CEM, heading: IC50 proliferation CCRF-CEM, 72 h, mean ± SEM of three independent assays
Excerpt: as §1, §2, §3

[7] = test system: 4T1, mouse breast cancer cell line; test: Anti-proliferation MTT / CCK-8 assay; type: cell-based; details: 72 h
Excerpt: as §1, §2, §3

[8] = test system: MDA-MB-231, human breast cancer cell line; test: Anti-proliferation MTT / CCK-8 assay; type: cell-based; details: MDA-MB-231, read-out: IC50 proliferation MDA-MB-231, heading: IC50 proliferation MDA-MB-231, 72 h, mean ± SEM of three independent assays
Excerpt: as §1, §2, §3

[9] = test system: HL-60, human leukemic cell line; test: Anti-proliferation MTT / CCK-8 assay; type: cell-based; details: HL-60, read-out: IC50 proliferation HL-60, heading: IC50 proliferation HL-60, 72 h, mean ± SEM of three independent assays
Excerpt: as §1, §2, §3

[10] = test system: U937, human histiocytic lymphoma; test: Anti-proliferation MTT / CCK-8 assay; type: cell-based; details: U-937, read-out: IC50 proliferation U937, heading: IC50 proliferation U937, 72 h, mean ± SEM of three independent assays
Excerpt: as §1, §2, §3

[11] = test system: Jurkat, human leukemic T cell line; test: Anti-proliferation MTT / CCK-8 assay; type: cell-based; details: Homo sapiens, Jurkat, 72 h
Procedure: These cells were purchased from the National Collection of Authenticated Cell Cultures (Shanghai, China).
as §2, with “crystals.” for “crystals. Finally, the absorbance value of each well was measured at 570 and 655 nm.”
as §3

HDAC1 = HDAC1 (Homo sapiens, UniProt Q13547); test: In vitro HDAC enzymatic inhibition assay (HDAC kit, fluorescence)
Sequence of HDAC1 (Q13547 whole entry): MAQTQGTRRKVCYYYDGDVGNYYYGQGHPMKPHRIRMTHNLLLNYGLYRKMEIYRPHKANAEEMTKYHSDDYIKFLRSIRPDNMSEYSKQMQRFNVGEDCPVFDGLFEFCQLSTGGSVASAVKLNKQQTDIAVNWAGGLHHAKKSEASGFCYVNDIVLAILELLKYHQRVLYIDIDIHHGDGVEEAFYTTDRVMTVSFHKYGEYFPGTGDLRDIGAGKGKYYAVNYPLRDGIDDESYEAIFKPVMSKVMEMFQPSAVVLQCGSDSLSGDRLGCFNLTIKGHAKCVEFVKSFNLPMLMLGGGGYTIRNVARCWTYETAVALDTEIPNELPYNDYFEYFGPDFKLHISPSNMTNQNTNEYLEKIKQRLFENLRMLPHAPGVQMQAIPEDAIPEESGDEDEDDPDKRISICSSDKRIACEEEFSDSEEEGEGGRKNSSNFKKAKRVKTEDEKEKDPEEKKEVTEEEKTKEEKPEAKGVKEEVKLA
Procedure: (§4) Enzymatic assays were performed by Shanghai ChemPartner according to the HDAC kit protocol. […] Fluorescence was recorded at 355 nm excitation and 460 nm emission on a Synergy MX reader (PerkinElmer Life Sciences, Boston, MA, USA). IC50 values were derived from dose–response curves.

HDAC6 = biological target: T1, HDAC6 (Homo sapiens, UniProt Q9UBN7); test: as above
T1 sequence (Q9UBN7 1-1215): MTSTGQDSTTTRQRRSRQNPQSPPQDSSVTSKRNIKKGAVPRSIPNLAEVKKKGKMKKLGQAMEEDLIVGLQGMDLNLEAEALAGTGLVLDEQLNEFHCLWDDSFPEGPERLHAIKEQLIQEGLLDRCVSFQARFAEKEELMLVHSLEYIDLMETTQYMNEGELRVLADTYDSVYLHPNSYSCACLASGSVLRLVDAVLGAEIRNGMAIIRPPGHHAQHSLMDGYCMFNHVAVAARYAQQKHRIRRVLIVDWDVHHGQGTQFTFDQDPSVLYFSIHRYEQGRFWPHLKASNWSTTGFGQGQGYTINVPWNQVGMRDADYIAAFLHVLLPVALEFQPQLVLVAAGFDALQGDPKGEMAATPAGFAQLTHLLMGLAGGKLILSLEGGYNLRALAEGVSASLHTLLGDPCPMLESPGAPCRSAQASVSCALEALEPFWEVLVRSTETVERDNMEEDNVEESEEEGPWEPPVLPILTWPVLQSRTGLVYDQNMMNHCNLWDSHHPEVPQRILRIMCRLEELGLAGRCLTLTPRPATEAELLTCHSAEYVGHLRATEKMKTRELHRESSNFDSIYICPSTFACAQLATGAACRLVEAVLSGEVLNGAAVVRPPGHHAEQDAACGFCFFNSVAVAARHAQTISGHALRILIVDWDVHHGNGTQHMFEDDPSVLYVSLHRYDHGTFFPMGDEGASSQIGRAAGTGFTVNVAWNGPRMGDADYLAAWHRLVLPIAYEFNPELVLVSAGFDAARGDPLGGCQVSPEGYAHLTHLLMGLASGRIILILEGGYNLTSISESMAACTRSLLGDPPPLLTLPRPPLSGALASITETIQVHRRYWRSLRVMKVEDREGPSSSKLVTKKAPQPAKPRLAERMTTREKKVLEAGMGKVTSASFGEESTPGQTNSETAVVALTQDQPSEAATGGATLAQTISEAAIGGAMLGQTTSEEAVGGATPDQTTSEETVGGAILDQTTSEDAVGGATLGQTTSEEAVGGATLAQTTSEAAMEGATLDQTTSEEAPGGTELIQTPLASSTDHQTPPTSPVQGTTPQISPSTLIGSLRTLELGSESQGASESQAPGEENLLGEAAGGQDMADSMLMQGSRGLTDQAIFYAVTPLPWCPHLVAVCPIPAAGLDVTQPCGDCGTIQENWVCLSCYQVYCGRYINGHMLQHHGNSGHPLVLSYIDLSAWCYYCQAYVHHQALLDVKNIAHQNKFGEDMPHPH
Procedure: as §4

| IC50 [1] [µM] | IC50 [2] [µM] | IC50 [3] [µM] | IC50 [4] [µM] | IC50 [5] [µM] | IC50 [6] [µM] | IC50 [7] [µM] | IC50 [8] [µM] | IC50 [9] [µM] | IC50 [10] [µM] | IC50 ([11]; read-out: IC50 against Jurkat cells) [µM] | IC50 ([11]; read-out: IC50 proliferation Jurkat, heading: IC50 proliferation Jurkat, mean ± SEM of three independent assays) [µM] | IC50 (HDAC1) [µM] | IC50 (HDAC6) [µM] | SMILES |
| --- | --- | --- | --- | --- | --- | --- | --- | --- | --- | --- | --- | --- | --- | --- |
| > 0.05 | > 50 | 3.86 ± 1.09 | 1.65 ± 0.64 | 0.5 ± 0.02 | 1.66 ± 0.34 | > 0.05 | 9.75 ± 1.78 | 0.86 ± 0.07 | 1.31 ± 0.38 | 2.23 | 2.23 ± 0.22 | – | – | Nc1cc(F)ccc1NC(=O)c1ccc(CNC(=O)/C=C/c2cccnc2)cc1 [Chidamide, reference compound] |
| – | – | – | – | – | – | – | – | – | – | – | – | 0.242 ± 0.015 | 0.114 ± 0.028 | O=C(NO)c1ccc(CNc2ccnc3ccccc23)cc1 [NBU-1, N-hydroxy-4-((quinolin-4-ylamino)methyl)benzamide] |

From article PMC12651750 (Cells, 2025)
